Reference: US5328906A, “0-(3-amino-2-hydroxypropyl)-hydroximic acid halides and process for preparing the same” (Biorex Kutato-Fejleszto KFT, priority 1993, dated 1994)

Tests used:
[1] = acute toxicity LD50 on Wistar rats; settings: rat, in vivo, iv
diabetic aorta = assay: beta-blocking effect on diabetic (Streptosotocin treated) rat aorta spiral and/or ring preparate, noradrenalin contractions; settings: aorta spiral of diabetic animals treated with Streptosotocin
Procedure: (§1) The beta-blocking effect of the compounds according to the present invention was tested on rat aorta spiral and/or ring preparate <J. Pharmacol. Exp. Therap. 158, 531 (1967)>. The experimental diabetes was induced with Streptosotocin <2-(3-nitroso-3-methylureido)-2-deoxy-D-glucose>. The reaction was evaluated as positive when the alpha stimulating effect of the noradrenalin on the control preparate, i.e. that having not been treated with Streptosotocin, was not influenced, but protected on the diabetic aorta. In the tests carried out with the compounds according to the present invention a general selective effect occurred, manifesting in case of diabetic tests in a strong, in case of normal tests in the absence of or in the presence of only a slight beta-blocking effect.
Experiments were carried out to study whether on the aorta spiral preparates of diabetic animals treated with Streptosotocin the Inderal protects the contractions induced by noradrenalin. As control, animals previously not treated with Streptosotocin were used. The results obtained essentially conformed to those known from the literature <Amer. […] (Endocrinology. Vol. 93, No. 3, September 1973). […]

[2] = test system: control preparate (rat aorta); assay: beta-blocking effect on control (not Streptosotocin treated) rat aorta spiral and/or ring preparate, noradrenalin contractions; settings: aorta spiral of animals not treated with Streptosotocin (normal tests)
Procedure: as §1
Experiments were carried out to study whether on the aorta spiral preparates of diabetic animals treated with Streptosotocin the Inderal protects the contractions induced by noradrenalin. As control, animals previously not treated with Streptosotocin were used. The results obtained essentially conformed to those known from the literature <Amer. […] (Endocrinology. Vol. 93, No. 3, September 1973).

Compound OC(CON=C(Cl)c1cccnc1)CN1CCCCC1 (stereo not drawn) [Example 5, O-(3-piperidino-2-hydroxy-propyl)-3-piridyl-hydroximic acid chloride] has an LD50 [1] of 110 mg/kg.
For CC(C)NCC(O)COc1cccc2ccccc12 (stereo not drawn) [Inderal, 1-isopropylamino-3-(naphtyloxy)-propan-2-ol], the “protection against the alpha stimulating effect (contractions) of noradrenalin” value (diabetic aorta) was “the alpha stimulating effect of noradrenalin was protected by the Inderal in diabetic tests” and the “protection against the alpha stimulating effect (contractions) of noradrenalin” value [2] was “not in the normal tests”.
